Structures are written as SMILES. Converted amounts (≈) assume the structure as drawn. Bounds are passed on as bounds.

Data on 13 molecules can be found in publication PMC6804080, “Benzoxaboroles—Novel Autotaxin Inhibitors” (Molecules, 2019).

One series deals with T1, Autotaxin (ATX) (Homo sapiens, UniProt Q13822).
T1 construct: we added 10 μL of recombinant ATX (2 ng/mL) in a Tris–HCl buffer
Description: biochemical choline detection assay for ATX inhibition, LysoPC substrate. To be noted: for IC50: mean standard deviation from duplicate experiments. As to the method: All 21 new benzoxaboroles derivatives prepared herein were evaluated for ATX inhibition in vitro using a biochemical choline detection assay, combining elements of assays already described in the literature.
[…] Mother plates with serial dilutions of compounds in pure DMSO were prepared from 10 mM DMSO stock solutions. Storplate-384-deep-well-V plates (Perkin Elmer) were also used for mother plate preparation. Compounds were diluted in a DMSO in a ratio of 1:3. An aliquot of 200 nL of compound solution was transferred from the mother plate to the test plate with a Mosquito nanoliter liquid handling system (TTP labtech). The assay was performed in Spectra-Plate-384 TC, transparent, (Perkin Elmer, Cat#6007658) using a 20 µL assay volume. The total final percentage of DMSO in the test media was 1%. Compounds were tested at 11 consecutive three-fold dilutions starting from 50 µM (final concentrations) in duplicate, covering range of 0.0008–50 μM to determine IC50 values. […] After dispensing of compounds directly to the dry plate, we added 10 μL of recombinant ATX (2 ng/mL) in a Tris–HCl buffer (140 mM NaCl, 1mM MgCl2, 5 mM KCl, 3 mM CaCl2, 1 mg/ml bovin serum albumin (BSA, fatty acid free) and 100 mM Tris–HCl, pH 9). […] The above-described solution with dimethyl sulfoxide but without the test compound was used as a control. LysoPC without ATX was used as a control for the autohydrolysis of LysoPC. After 1.5 h of incubation, 20 μL of stop solution and developer was added {Choline oxidase (1.2 U/mL), Peroxidase (1.2 U/mL), TOOS (2.7 mM), 4-Aminoantipyrine (2.7 mM), and EDTA (50 mM)} to the reaction mixture, and absorbance was measured after 30 min of incubation. The absorbance was measured by using Perkin-Elmer EnVision plate reader (λ = 555 nm). Data were analyzed using GraphPad Prism software. The calculation of IC50 data, curves and quality control (QC) analysis was made by using Excel tools and GraphPadPrism software. Briefly, individual concentration–effect curves were generated by plotting the logarithm of the tested concentration of tested compounds (X) vs. corresponding percentage inhibition values (Y) using a least squares (ordinary) fit. […] QC criteria parameters (Z,’ S:B, ΔmP) were checked for every plate.

Series [1] in a line: Chrom logD determination by gradient HPLC (CHI). The class given is physicochemical. To be noted: pH 7.4, Luna C18 column; for chromatographic logD: reversed-phase HPLC, Phenomenex Luna C18 column. As for the experimental part:
clogP values were calculated for all compounds using the Percepta software. Chrom logD was determined experimentally using a procedure described in the supplementary data. Furthermore, the correlation between calculated clogP values and experimentally determined Chrom log D values were explored for molecules containing boron functional groups such as boronic acids and benzoxaboroles.
Chrom logD values were determined from the following equation: Chrom logD = 0.0857 × CHI − 2 [39]. Chromatographic hydrophobic index (CHI) values were determined from the gradient retention times (RT). These values approximately corresponded to the volume percentage of organic component in the mobile phase when the compound elutes. CHI values were determined at pH 7.4. Chromatograms were obtained using on Agilent 1100 Series liquid chromatography system with an HPLC diode-array detector (DAD) coupled with a Micromass Quattro micro atmosphere pressure ionization (API) mass spectrometer. The column used for analyses was Phenomenex Luna C18 (50 × 3 mm, 5 µm, 100 Å). The column was maintained at 25 °C. The flow rate was 1.0 mL/min. The mobile phase was composed of 50 mM ammonium acetate in water at pH 7.4 (solvent A) and acetonitrile (solvent B). The solvent gradient condition was initially 0.5% B, and then it increased linearly to 100% B over 3.0 min, remaining at 100% B for 0.5 min, then decreasing linearly to 0% B over 0.2 min followed by an equilibration period of 1.3 min prior to the next injection. The total experimental duration was 5 min. Injection volume was 2.0 µl. Samples temperature was maintained at 15 °C in the autosampler chamber. A group of ten standard compounds having different CHI values was used for calibration of RP-HPLC [40].

Series [2] in a line: in vitro plasma stability, human plasma. The class given is in vitro ADME. Conditions: after 4 h. As for the experimental part:
(§1) The in vitro plasma stability of the test compounds was studied in human and rat plasma with propranolol, benflorex, and eucatropine as control substances. All compounds at final concentrations of 5 μM (0.5% DMSO) were incubated in a phosphate buffer (50 mM, pH 7.4) for 4 h at 37 °C together with plasma. Aliquots were taken at different time points (0, 30, 120 min and 4 h), followed by reaction termination by the addition of CH3CN:CH3OH 2:1 v/v., which contained diclofenac and warfarin as internal standards (IS). Samples were then centrifuged (at 1600 rpm at 4 °C for 30 min), and the resulting supernatants were subjected to LC/MS/MS analysis. Results are expressed as % remaining.

The nature of series [3]: in vitro plasma stability, rat plasma. The series is classed as in vitro ADME. To be noted: after 4 h. As for the experimental part: as §1
Series [4] is described as follows: metabolic stability in human liver microsomes. The class given is in vitro ADME. As for the experimental part:
(§2) Metabolic stability was assessed in rat and human liver microsomes, with testosterone and propranolol as positive controls. All compounds, at a final concentration of 1 μM (0.03% DMSO), were incubated in a phosphate buffer (50 mM, pH 7.4) for 60 min at 37 °C, together with liver microsomes in the absence and presence of NADPH generating system (nicotinamide adenine dinucleotide phosphate (NADP, 2 mM), glucose-6-phosphate (20 mM), glucose-6-phosphate dehydrogenase (6U) and magnesium chloride (2 mM)). Aliquots were taken at different time points (0, 10, 20, 30, 45 and 60 min), followed by reaction termination by addition of CH3CN:CH3OH 2:1 v/v, containing diclofenac as internal standard (IS). Samples were then centrifuged (at 2000 rpm at 4 °C for 30 min), and resulting supernatants were subjected to LC/MS/MS analysis. The in vitro half-life was calculated in GraphPadPrism software from % remaining vs. time regression using non-linear regression fit. In vitro intrinsic clearance, expressed as mL/min/g liver, was determined from in vitro half-life and normalized for the protein concentration in the incubation mixture, assuming a 52.5 mg/g liver.
(Microsomes from liver hold many membrane-bound enzymes, among them those of drug oxidation.)

Series [5] can be described thus: metabolic stability in rat liver microsomes. The class given is in vitro ADME. As to the method: as §2
Series [6] can be described thus: kinetic solubility, turbidimetric method. The series is classed as physicochemical. To be noted: 37 °C, pH 7.4, aqueous buffer, kinetic from dmso stock, Solubility (kinetic solubility range). As for the experimental part: Turbidimetric solubility allows for a rapid determination of kinetic solubility by using small amounts of the test compound. Assay controls were α-naphtoflavone (low solubility) and sulfaphenazole (expected solubility >100µM). DMSO stock solutions (10 mM) of each compound were first serially diluted 1 in 3 in DMSO and then spiked into an aqueous buffer (100 mM PBS), resulting in 5 following final concentration: 100, 30, 10, 3 and 1 µM (each concentration was tested in duplicate). […] Compound samples were compared to a solvent control in an aqueous buffer (DMSO 1% final concentration), and a significant increase of sample absorbance was considered to have occurred when the absorbance reached a 3-fold standard deviation of the average DMSO absorbance. The calculation of solubility range data was made by Excel tool software. Results are expressed as an estimated solubility range.

Where [7] appears, read: choline release assay using as a substrate.
The mark [8] stands for this setting: choline release assay using LPC C16:0 as a substrate.

The term IC50 denotes the concentration at which inhibition is half-maximal. Lower therefore signals inhibition by little substance. By chromatographic logD is commonly meant a lipophilicity value derived from retention on a column. Higher therefore signals higher lipophilicity. `O=C(OCc1cc(Cl)cc(Cl)c1)N1CCN(C2CCN(C(=O)c3ccc4c(c3)COB4O)C2)CC1` (centres unmarked) [Compound 32, (3,5-dichlorophenyl)methyl 4-[1-(1-hydroxy-3H-2,1-benzoxaborole-5-carbonyl)pyrrolidin-3-yl]piperazine-1-carboxylate] returned an IC50 against Autotaxin (ATX) (setting [7]) of 0.37 ± 0.35 µM. Also, at Autotaxin (ATX) (in words), the “ATX inhibition, range of activity” value is “nanomolar range”. Besides, the chromatographic logD in series [1] was 4.38.

Take `O=C(OCc1cc(Cl)cc(Cl)c1)N1CCN(C2CCN(C(=O)c3cccc4c3COB4O)C2)CC1` (centres unmarked) [Compound 33]: the IC50 on Autotaxin (ATX) (setting [8]) amounted to 8 ± 2.58 µM. In addition, the “Chrom logD” value in series [1] worked out at 5.40.

The solubility (kinetic) is the concentration staying in solution when a stock, usually in DMSO, is diluted into the medium. Turning to `O=C(OCc1cc(Cl)cc(Cl)c1)N1CCN(C2CN(C(=O)c3ccc4c(c3)COB4O)C2)CC1` [Compound 38, (3,5-dichlorophenyl)methyl 4-[1-(1-hydroxy-3H-2,1-benzoxaborole-5-carbonyl)azetidin-3-yl]piperazine-1-carboxylate], the “PS (plasma stability), human” value in series [2] stood at 79.1 %remaining. Also, in series [3], the “PS (plasma stability), rat” value came out at 60.1 %remaining. In series [4], the “LMS: predicted in vivo hepatic clearance, human” value was 79 %LBF. In addition, the “LMS: predicted in vivo hepatic clearance, rat” value in series [5] was 82 %LBF. The molecule further gave a concentration for half-maximal inhibition (IC50) against Autotaxin (ATX) (setting [7]) of 2 ± 1.73 µM. In series [6], this molecule showed a kinetic solubility at 1 h of 30 to 100 µM (≈ 15.1 to 50.4 µg/mL). The chromatographic logD in series [1] is 4.46.

As for `O=C(OCc1ccccc1)N1CCN(C2CCN(C(=O)c3ccc4c(c3)B(O)OC4)C2)CC1` (centres unmarked) [Compound 39, benzyl 4-[1-(1-hydroxy-3H-2,1-benzoxaborole-6-carbonyl)pyrrolidin-3-yl]piperazine-1-carboxylate], on Autotaxin (ATX) (setting [7]), the 50% inhibitory concentration (IC50) is over 50 µM. The chromatographic logD in series [1] was found to be 3.05.

With `O=C(OCc1ccccc1)N1CCN(C2CCN(C(=O)c3ccc4c(c3)COB4O)C2)CC1` (centres unmarked) [Compound 40, benzyl 4-[1-(1-hydroxy-3H-2,1-benzoxaborole-5-carbonyl)pyrrolidin-3-yl]piperazine-1-carboxylate], the half-maximal inhibitory concentration (IC50) against Autotaxin (ATX) (setting [7]) was over 50 µM. Also, the chromatographic logD in series [1] stood at 2.9.

For the molecule `O=C(OCc1ccccc1)N1CCN(C2CN(C(=O)c3ccc4c(c3)B(O)OC4)C2)CC1` [Compound 41, benzyl 4-[1-(1-hydroxy-3H-2,1-benzoxaborole-6-carbonyl)azetidin-3-yl]piperazine-1-carboxylate], on Autotaxin (ATX) (setting [7]), the IC50 is 23 ± 1.18 µM. In series [1], the chromatographic logD stood at 3.07.

At Autotaxin (ATX) (setting [7]), `O=C(OCc1ccccc1)N1CCN(C2CN(C(=O)c3ccc4c(c3)COB4O)C2)CC1` [Compound 42, benzyl 4-[1-(1-hydroxy-3H-2,1-benzoxaborole-5-carbonyl)azetidin-3-yl]piperazine-1-carboxylate] came in with an IC50 of over 50 µM. Also, the chromatographic logD in series [1] came to 2.9.

In turn, `Cc1cc(C)cc(COC(=O)N2CCN(C3CCN(C(=O)c4ccc5c(c4)COB5O)C3)CC2)c1` (centres unmarked) [Compound 44, (3,5-dimethylphenyl)methyl 4-[1-(1-hydroxy-3H-2,1-benzoxaborole-5-carbonyl)pyrrolidin-3-yl]piperazine-1-carboxylate] displayed a 50% inhibitory concentration (IC50) against Autotaxin (ATX) (setting [7]) of 4.7 ± 1.14 µM. This molecule registered a chromatographic logD in series [1] of 3.99.

On Autotaxin (ATX) (setting [7]), `Cc1cc(C)cc(COC(=O)N2CCN(C3CN(C(=O)c4ccc5c(c4)COB5O)C3)CC2)c1` [Compound 46, (3,5-dimethylphenyl)methyl 4-[1-(1-hydroxy-3H-2,1-benzoxaborole-5-carbonyl)azetidin-3-yl]piperazine-1-carboxylate] showed an IC50 of 5.1 ± 2.75 µM. The molecule further yielded a chromatographic logD in series [1] of 4.01.

On to `COc1cc(COC(=O)N2CCN(C3CCN(C(=O)c4ccc5c(c4)B(O)OC5)C3)CC2)cc(OC)c1` (centres unmarked) [Compound 47, (3,5-dimethoxyphenyl)methyl 4-[1-(1-hydroxy-3H-2,1-benzoxaborole-6-carbonyl)pyrrolidin-3-yl]piperazine-1-carboxylate], for which, on Autotaxin (ATX) (setting [7]), the midpoint of inhibition, the IC50, lay at 14 ± 5.5 µM. Moreover, in series [1], the chromatographic logD was found to be 3.19.

The molecule `COc1cc(COC(=O)N2CCN(C3CCN(C(=O)c4ccc5c(c4)COB5O)C3)CC2)cc(OC)c1` (centres unmarked) [Compound 48, (3,5-dimethoxyphenyl)methyl 4-[1-(1-hydroxy-3H-2,1-benzoxaborole-5-carbonyl)pyrrolidin-3-yl]piperazine-1-carboxylate] yielded a half-inhibitory concentration (IC50) on Autotaxin (ATX) (setting [7]) of 15 ± 6.07 µM. The chromatographic logD in series [1] is 3.03.

For the molecule `COc1cc(COC(=O)N2CCN(C3CN(C(=O)c4ccc5c(c4)B(O)OC5)C3)CC2)cc(OC)c1` [Compound 49, (3,5-dimethoxyphenyl)methyl 4-[1-(1-hydroxy-3H-2,1-benzoxaborole-6-carbonyl)azetidin-3-yl]piperazine-1-carboxylate], the IC50 against Autotaxin (ATX) (setting [7]) is 11 ± 4.59 µM. This molecule had a chromatographic logD in series [1] of 3.21.

As to `COc1cc(COC(=O)N2CCN(C3CN(C(=O)c4ccc5c(c4)COB5O)C3)CC2)cc(OC)c1` [Compound 50], the IC50 against Autotaxin (ATX) (setting [8]) was 13 ± 3.26 µM. In addition, the “Chrom logD” value in series [1] is reported as 3.07.
